Experimental data from US8952024B2, “Herbicidal pyrimidone derivatives” (E I du Pont de Nemours and Company, priority 2009, dated 2015).
Like-named read-outs stand apart in the source and are kept apart here.

What was measured:
Assay in all cases: Test B pre-/postemergence plant response
Format in all cases: in vivo
[1] = system: yellow nutsedge (Cyperus esculentus); details: for pest or weed control at 16 g/ha: 16 g ai/ha; for pest or weed control at 16 g/ha / pest or weed control at 31 g/ha / pest or weed control at 62 g/ha: read-out: Plant response rating, Nutsedge, Yellow; for pest or weed control at 31 g/ha: 31 g ai/ha; for pest or weed control at 62 g/ha: 62 g ai/ha
Description: (§1) Seeds of plant species selected from blackgrass (Alopecurus myosuroides), downy bromegrass (Bromus tectorum), green foxtail (Setaria viridis), Italian ryegrass (Lolium multiflorum), wheat (Triticum aestivum), wild oat (Avena fatua), deadnettle (henbit deadnettle, Lamium amplexicaule), galium (catchweed bedstraw, Galium aparine), bermudagrass (Cynodon dactylon), Surinam grass (Brachiaria decumbens), cocklebur (Xanthium strumarium), corn (Zea mays), large crabgrass (Digitaria sanguinalis), woolly cupgrass (Eriochloa villosa), giant foxtail (Setaria faberii), goosegrass (Eleusine indica), johnsongrass (Sorghum halepense), kochia (Kochia scoparia), lambsquarters (Chenopodium album), morningglory (Ipomoea coccinea), nightshade (eastern black nightshade, Solanum ptycanthum), yellow nutsedge (Cyperus esculentus), pigweed (Amaranthus retroflexus), ragweed (common ragweed, Ambrosia elatior), Russian thistle (Salsola kali), soybean (Glycine max), sunflower (common oilseed sunflower, Helianthus annuus) and velvetleaf (Abutilon theophrasti) were planted into a blend of loam soil and sand and treated preemergence with test compounds formulated in a non-phytotoxic solvent mixture which included a surfactant.
(§2) At the same time, plants selected from these crop and weed species and also winter barley (Hordeum vulgare), canarygrass (Phalaris minor), chickweed (Stellaria media) and windgrass (Apera spica-venti) were planted in pots containing Redi-Earth® planting medium (Scotts Company, 14111 Scottslawn Road, Marysville, Ohio 43041) comprising spaghnum peat moss, vermiculite, wetting agent and starter nutrients and treated with postemergence applications of some of the test chemicals formulated in the same manner. Plants ranged in height from 2 to 18 cm (1- to 4-leaf stage) for postemergence treatments.
(§3) Treated plants and controls were maintained in a greenhouse for 13 to 15 days, after which time all treated plants were visually evaluated and compared to controls. Plant response ratings, summarized in Table B, are based on a scale of 0 to 100 where 0 is no effect and 100 is complete control. A dash (-) response means no test result.

[2] = system: pigweed (Amaranthus retroflexus); details: for pest or weed control at 16 g/ha: 16 g ai/ha; for pest or weed control at 16 g/ha / pest or weed control at 31 g/ha / pest or weed control at 62 g/ha: read-out: Plant response rating, Pigweed; for pest or weed control at 31 g/ha: 31 g ai/ha; for pest or weed control at 62 g/ha: 62 g ai/ha
Description: as §1, §2, §3

[3] = system: lambsquarters (Chenopodium album); details: for pest or weed control at 16 g/ha: 16 g ai/ha; for pest or weed control at 16 g/ha / pest or weed control at 31 g/ha / pest or weed control at 62 g/ha: read-out: Plant response rating, Lambsquarters; for pest or weed control at 31 g/ha: 31 g ai/ha; for pest or weed control at 62 g/ha: 62 g ai/ha
Description: as §1, §2, §3

[4] = system: green foxtail (Setaria viridis); details: for pest or weed control at 16 g/ha: 16 g ai/ha; for pest or weed control at 16 g/ha / pest or weed control at 31 g/ha / pest or weed control at 62 g/ha: read-out: Plant response rating, Foxtail, Green; for pest or weed control at 31 g/ha: 31 g ai/ha; for pest or weed control at 62 g/ha: 62 g ai/ha
Description: as §1, §2, §3

[5] = system: kochia (Kochia scoparia); details: for pest or weed control at 16 g/ha: 16 g ai/ha; for pest or weed control at 16 g/ha / pest or weed control at 31 g/ha / pest or weed control at 62 g/ha: read-out: Plant response rating, Kochia; for pest or weed control at 31 g/ha: 31 g ai/ha; for pest or weed control at 62 g/ha: 62 g ai/ha
Description: as §1, §2, §3

[6] = system: large crabgrass (Digitaria sanguinalis); details: for pest or weed control at 16 g/ha: 16 g ai/ha; for pest or weed control at 16 g/ha / pest or weed control at 31 g/ha / pest or weed control at 62 g/ha: read-out: Plant response rating, Crabgrass, Large; for pest or weed control at 31 g/ha: 31 g ai/ha; for pest or weed control at 62 g/ha: 62 g ai/ha
Description: as §1, §2, §3

[7] = system: bermudagrass (Cynodon dactylon); details: for pest or weed control at 16 g/ha: 16 g ai/ha; for pest or weed control at 31 g/ha: 31 g ai/ha; for pest or weed control at 62 g/ha: 62 g ai/ha
Description: as §1, §2, §3

[8] = system: wild oat (Avena fatua); details: for pest or weed control at 16 g/ha: 16 g ai/ha; for pest or weed control at 62 g/ha: 62 g ai/ha
Description: as §1, §2, §3

[9] = system: Surinam grass (Brachiaria decumbens); details: Preemergence, 125 g ai/ha; 0 to 100 scale
Description: as §1, §2, §3

[10] = Cyperus, pre-emergence, Preemergence, scale 0 to 100 (0 no effect, 100 complete control)
[11] = Preemergence, 125 g ai/ha, 0 to 100 scale
[12] = Amaranthus retroflexus, pre-emergence, Preemergence, scale 0 to 100 (0 no effect, 100 complete control)
[13] = Chenopodium album, pre-emergence, Preemergence, scale 0 to 100 (0 no effect, 100 complete control)
[14] = Setaria viridis, pre-emergence, Preemergence, scale 0 to 100 (0 no effect, 100 complete control)
[15] = Bassia scoparia, pre-emergence, Preemergence, scale 0 to 100 (0 no effect, 100 complete control)
[16] = Digitaria sanguinalis, pre-emergence, Preemergence, scale 0 to 100 (0 no effect, 100 complete control)
[17] = Cynodon dactylon, pre-emergence, Preemergence, scale 0 to 100 (0 no effect, 100 complete control), read-out: Plant response rating, Bermudagrass
[18] = Avena fatua, pre-emergence, Preemergence, scale 0 to 100 (0 no effect, 100 complete control), read-out: Plant response rating, Oat, Wild

O=C1CCCC(O)=C1C(=O)c1cnc(-c2ccccc2)n(-c2ccccc2)c1=O [Compound 2, 5-[(2-hydroxy-6-oxo-1-cyclohexen-1-yl)carbonyl]-2,3-diphenyl-4(3H)-pyrimidinone]
pest or weed control at 16 g/ha ([1]; Cyperus, post-emergence, Postemergence, 0 to 100 scale): 40%
pest or weed control at 31 g/ha ([1]; Cyperus, post-emergence, Postemergence, scale 0 to 100 (0 no effect, 100 complete control)): 45%
pest or weed control at 62 g/ha ([1]; Cyperus, post-emergence, Postemergence, scale 0 (no effect) to 100 (complete control), 13 to 15 days): 60%
pest or weed control at 125 g/ha ([1]; Cyperus, post-emergence, Postemergence, 125 g ai/ha, visual rating after 13 to 15 days, scale 0 (no effect) to 100 (complete control)): 75%
pest or weed control at 16 g/ha [1, 10]: 0%
pest or weed control at 31 g/ha [1, 10]: 15%
pest or weed control at 62 g/ha [1, 10]: 40%
Nutsedge, Yellow plant response rating [1, 11]: 70
pest or weed control at 16 g/ha ([2]; Amaranthus retroflexus, post-emergence, Postemergence, 0 to 100 scale): 70%
pest or weed control at 31 g/ha ([2]; Amaranthus retroflexus, post-emergence, Postemergence, scale 0 to 100 (0 no effect, 100 complete control)): 85%
pest or weed control at 62 g/ha ([2]; Amaranthus retroflexus, post-emergence, Postemergence, scale 0 (no effect) to 100 (complete control), 13 to 15 days): 90%
pest or weed control at 125 g/ha ([2]; Amaranthus retroflexus, post-emergence, Postemergence, 125 g ai/ha, visual rating after 13 to 15 days, scale 0 (no effect) to 100 (complete control)): 95%
pest or weed control at 16 g/ha [2, 12]: 98%
pest or weed control at 31 g/ha [2, 12]: 100%
pest or weed control at 62 g/ha [2, 12]: 100%
Pigweed plant response rating [2, 11]: 100
pest or weed control at 16 g/ha ([3]; Chenopodium album, post-emergence, Postemergence, 0 to 100 scale): 80%
pest or weed control at 31 g/ha ([3]; Chenopodium album, post-emergence, Postemergence, scale 0 to 100 (0 no effect, 100 complete control)): 90%
pest or weed control at 62 g/ha ([3]; Chenopodium album, post-emergence, Postemergence, scale 0 (no effect) to 100 (complete control), 13 to 15 days): 90%
pest or weed control at 125 g/ha ([3]; Chenopodium album, post-emergence, Postemergence, 125 g ai/ha, visual rating after 13 to 15 days, scale 0 (no effect) to 100 (complete control)): 95%
pest or weed control at 16 g/ha [3, 13]: 100%
pest or weed control at 31 g/ha [3, 13]: 100%
pest or weed control at 62 g/ha ([3]; Chenopodium album, pre-emergence, Preemergence, scale 0 to 100, 0 no effect, 100 complete control): 100%
Lambsquarters plant response rating [3, 11]: 100
Foxtail, Green plant response rating [4, 11]: 60
pest or weed control at 16 g/ha ([4]; Setaria viridis, post-emergence, Postemergence, 0 to 100 scale): 50%
pest or weed control at 31 g/ha ([4]; Setaria viridis, post-emergence, Postemergence, scale 0 to 100 (0 no effect, 100 complete control)): 75%
pest or weed control at 62 g/ha ([4]; Setaria viridis, post-emergence, Postemergence, scale 0 (no effect) to 100 (complete control), 13 to 15 days): 90%
pest or weed control at 125 g/ha ([4]; Setaria viridis, post-emergence, Postemergence, 125 g ai/ha, visual rating after 13 to 15 days, scale 0 (no effect) to 100 (complete control)): 100%
pest or weed control at 16 g/ha [4, 14]: 0%
pest or weed control at 31 g/ha [4, 14]: 0%
pest or weed control at 62 g/ha ([4]; Setaria viridis, pre-emergence, Preemergence, scale 0 to 100, 0 no effect, 100 complete control): 5%
pest or weed control at 16 g/ha ([5]; Bassia scoparia, post-emergence, Postemergence, 0 to 100 scale): 55%
pest or weed control at 31 g/ha ([5]; Bassia scoparia, post-emergence, Postemergence, scale 0 to 100 (0 no effect, 100 complete control)): 60%
pest or weed control at 62 g/ha ([5]; Bassia scoparia, post-emergence, Postemergence, scale 0 (no effect) to 100 (complete control), 13 to 15 days): 75%
pest or weed control at 125 g/ha ([5]; Bassia scoparia, post-emergence, Postemergence, 125 g ai/ha, visual rating after 13 to 15 days, scale 0 (no effect) to 100 (complete control)): 80%
pest or weed control at 16 g/ha [5, 15]: 0%
pest or weed control at 31 g/ha [5, 15]: 100%
pest or weed control at 62 g/ha [5, 15]: 100%
Kochia plant response rating [5, 11]: 100
pest or weed control at 16 g/ha ([6]; Digitaria sanguinalis, post-emergence, Postemergence, 0 to 100 scale): 70%
pest or weed control at 31 g/ha ([6]; Digitaria sanguinalis, post-emergence, Postemergence, scale 0 to 100 (0 no effect, 100 complete control)): 80%
pest or weed control at 62 g/ha ([6]; Digitaria sanguinalis, post-emergence, Postemergence, scale 0 (no effect) to 100 (complete control), 13 to 15 days): 85%
pest or weed control at 125 g/ha ([6]; Digitaria sanguinalis, post-emergence, Postemergence, 125 g ai/ha, visual rating after 13 to 15 days, scale 0 (no effect) to 100 (complete control)): 90%
pest or weed control at 16 g/ha [6, 16]: 0%
pest or weed control at 31 g/ha [6, 16]: 15%
pest or weed control at 62 g/ha ([6]; Digitaria sanguinalis, pre-emergence, Preemergence, scale 0 to 100, 0 no effect, 100 complete control): 100%
Crabgrass, Large plant response rating [6, 11]: 100
pest or weed control at 16 g/ha ([7]; Cynodon dactylon, post-emergence, Postemergence, 0 to 100 scale, read-out: Plant response rating, Bermudagrass): 40%
pest or weed control at 31 g/ha ([7]; Cynodon dactylon, post-emergence, Postemergence, scale 0 to 100 (0 no effect, 100 complete control), read-out: Plant response rating, Bermudagrass): 80%
pest or weed control at 62 g/ha ([7]; Cynodon dactylon, post-emergence, Postemergence, scale 0 (no effect) to 100 (complete control), 13 to 15 days, read-out: Plant response rating, Bermudagrass): 85%
pest or weed control at 125 g/ha ([7]; Cynodon dactylon, post-emergence, Postemergence, 125 g ai/ha, scale 0 to 100 (0 no effect, 100 complete control), 13 to 15 days, read-out: Plant response rating, Bermudagrass): 90%
pest or weed control at 16 g/ha [7, 17]: 25%
pest or weed control at 31 g/ha [7, 17]: 98%
pest or weed control at 62 g/ha ([7]; Cynodon dactylon, pre-emergence, Preemergence, scale 0 to 100, 0 no effect, 100 complete control, read-out: Plant response rating, Bermudagrass): 100%
Bermudagrass plant response rating [7, 11]: 100
pest or weed control at 16 g/ha ([8]; Avena fatua, post-emergence, Postemergence, 0 to 100 scale, read-out: Plant response rating, Oat, Wild): 5%
pest or weed control at 31 g/ha ([8]; Avena fatua, post-emergence, Postemergence, 31 g ai/ha, scale 0 to 100 (0 no effect, 100 complete control), read-out: Plant response rating, Oat, Wild): 30%
pest or weed control at 62 g/ha ([8]; Avena fatua, post-emergence, Postemergence, scale 0 (no effect) to 100 (complete control), 13 to 15 days, read-out: Plant response rating, Oat, Wild): 45%
pest or weed control at 125 g/ha ([8]; Avena fatua, post-emergence, Postemergence, 125 g ai/ha, visual rating after 13 to 15 days, scale 0 (no effect) to 100 (complete control)): 55%
pest or weed control at 16 g/ha [8, 18]: 0%
pest or weed control at 62 g/ha [8, 18]: 5%
Oat, Wild plant response rating [8, 11]: 50
Surinam Grass plant response rating [9]: 60
